The record followed here is the Bradley open melting point set (2014).

Values joined by “and” are separate entries in the source; they are usually repeats but may differ in a detail not shown here. Equal entries are not always repeated.

As a reminder, the melting point is the temperature of the solid-liquid transition. In the case of `C(=NNc1ccccc1)C(=NNc1ccccc1)c1cccc(C(C=NNc2ccccc2)=NNc2ccccc2)c1`, the melting point was 165 °C.

As for `CSCC[C@H](NC(=O)OC(C)(C)C)C(=O)O` [N-boc-L-methionine], the melting point came to 50 °C.

For the compound `C/C=C/CCCCC` [trans-2-octene], the melting point was -88 °C.

For `COC(=O)c1sc(Br)c(Br)c1O` [methyl 4,5-dibromo-3-hydroxythiophene-2-carboxylate], the melting point was determined as 127 °C.

For `COC(=O)c1cc(Br)ccc1NC(C)=O` [methyl 2-acetamido-5-bromobenzoate], the melting point was 134 °C.

Compound `Nc1ccccc1B(O)O` [2-aminobenzeneboronic acid] gave a melting point of 189 °C.

Consider `COc1ccc(/C=C2\N=C(c3ccccc3)OC2=O)cc1OC`, for which the melting point was 133 °C.

In the case of `Nc1ccc(Cl)cc1N` [4-chloro-o-phenylenediamine], the melting point is 72 °C.

Consider `N#CCc1ccc([N+](=O)[O-])cc1` [p-nitrophenylacetonitrile], for which the melting point came to 116 °C.

On to `Cc1ccc(Cl)c(N)c1` [2-chloro-5-methylaniline], for which the melting point was 31 °C.

Take `C[C@]12CC[C@@H]3c4ccc(O)cc4CC[C@H]3[C@@H]1CCC2=O` [estrone]: the melting point came out at 259 °C.

The compound `C[SiH]1O[SiH](C)O[SiH](C)O[SiH](C)O1` (stereo not given) [2,4,6,8-tetramethylcyclotetrasiloxane] gave a melting point of -69 °C.

`CCCCCCCCCCCBr` [1-bromoundecane] had a melting point of -9 °C.

`CCCCCOC(=O)c1ccc(O)cc1` [N-pentyl 4-hydroxybenzoate] registered a melting point of 38 °C.

Compound `CCCBr` [1-bromopropane] gave a melting point of -110 °C.

The compound `CC(C)(C)NCC(O)COc1cccc2c1C[C@H](O)[C@H](O)C2` (stereo not given in full) [Nadolol] yielded a melting point of 124 °C.

`O=[N+]([O-])/C=C/c1ccc(Cl)c(Cl)c1` [3,4-dichloro-beta-nitrostyrene] showed a melting point of 93 °C.

As to `CC(=O)c1cccc2ccccc12` [1-acetylnaphthalene], the melting point stood at 10 °C.

On to `O=c1on(-c2ccccc2)c(Br)c1-c1ccccc1` [3-bromo-2,4-diphenylisoxazol-5(2H)-one], for which the melting point was determined as 166 °C.

Take `ClC1(Cl)[C@]2(Cl)C(/Cl)=C(/Cl)[C@@]1(Cl)[C@@H]3[C@@H](Cl)[C@@H](Cl)C[C@H]23` [a-Chlordane, cis-Chlordane]: the melting point was 106 °C.

As to `Cc1ccc(C(=O)OC2CC(C#N)OC2OC(=O)c2ccc(C)cc2)cc1` (stereo not given), the melting point was found to be 111 °C.

As for `Clc1ccc(-c2ccc(Cl)c(Cl)c2Cl)cc1Cl` [PCB-105], the melting point worked out at 117 °C.

In the case of `c1ccc(B(c2ccccc2)c2ccccc2)cc1` [triphenylborane], the melting point was found to be 147 °C.

For the compound `OC(c1ccccc1)(c1ccccc1)c1ccccc1` [Triphenylmethanol], the melting point was 163 °C.

As for `CO` [methanol], the melting point was -98 °C (6×) and -97.5 °C.

As for `O=C(Cc1ccccc1)Cc1ccccc1` [1,3-diphenylacetone], the melting point turned out to be 33 °C.

On to `Cc1ccc2sccc2c1` [5-methylbenzo[b]thiophene], for which the melting point amounted to 34 °C.

`CCOC(=O)C1c2ccccc2Oc2ccccc21` [ethyl xanthene-9-carboxylate] registered a melting point of 67 °C.

The compound `N[C@@H](CC(=O)O)C(=O)O` [L-Aspartic Acid] displayed a melting point of 230 °C.

In turn, `O=C1c2ccccc2Cc2ccccc21` [Anthracen-9(10H)-one] had a melting point of 156 °C.

In turn, `O=C(O)/C=C/c1cccc(Cl)c1` [m-chlorocinnamic_acid__(trans)] yielded a melting point of 159 °C.

Regarding `O=C(O)C1CCCCC1` [cyclohexanecarboxylic acid], the melting point was found to be 31.5 °C.

In turn, `CO` [Methanol] came in with a melting point of -98 °C.

For the compound `CC(=O)Oc1ccc(-c2ccccc2)cc1` [4-acetoxybiphenyl], the melting point came to 88 °C.

For `CCC1(CC)C(=O)NCC(C)C1=O` (stereo not given) [methyprylon], the melting point is 75.5 °C.

`C1=CCCC=CCC1` [1,5-cyclooctadiene] displayed a melting point of -69 °C.

Consider `O=C(O)C[C@@H](O)C(=O)O` [D-malic acid], for which the melting point was found to be 102 °C.

As to `B1Oc2ccccc2O1` [catecholborane], the melting point came out at 12 °C.

In the case of `O=C[C@H](O)[C@@H](O)[C@@H](O)CO` (racemic) [dl-arabinose], the melting point amounted to 159 °C.

In turn, `O=C(O)CCP(=O)(O)O` [3-phosphonopropionic acid] returned a melting point of 164 °C.

Turning to `COC1=C(OC)/C(=C/C2CCC=CC23OC(=O)C(OC)=C3OC)OC1=O` (stereo not given), the melting point stood at 119 °C.

Regarding `CC1=CC(c2c(C)cc(C)cc2C)N=N1` (stereo not given) [5-methyl-3-(2,4,6-trimethylphenyl)-1H-pyrazole], the melting point was 129 °C.

For `COC(=O)c1ccc(OC)c(OC)c1` [methyl_3,4-dimethoxybenzoate], the melting point turned out to be 60 °C.

Consider `O=C(O)c1cc(Cl)c([N+](=O)[O-])cc1[N+](=O)[O-]` [5-chloro-2,4-dinitrobenzoic acid], for which the melting point was determined as 181 °C.

On to `CCCCCCCCCCCCCCCCCCO` [1-octadecanol], for which the melting point stood at 61 °C.

As to `O=C(CO)c1ccccc1` [2-hydroxyacetophenone], the melting point was found to be 6 °C.

As for `N#CCCCCCCCCC#N` [sebaconitrile], the melting point turned out to be 6 °C.

`Oc1ccccc1F` [2-fluorophenol]: the melting point turned out to be 15 °C.

For the compound `O=C(O)c1ccc2ncccc2c1` [quinoline-6-carboxylic acid], the melting point was found to be 295 °C.

Compound `C=CCc1ccc(O)c(OC)c1` [4-Allyl-2-methoxyphenol] came in with a melting point of -9 °C.

Regarding `Nc1cc(Cl)ccc1[N+](=O)[O-]` [5-Chlor-2-nitroanilin], the melting point was 119 °C.

`O=c1[nH]c2ccccc2o1` [2-benzoxazolinone] returned a melting point of 140 °C.

`Nc1ncccc1OCc1ccccc1` [2-amino-3-benzyloxypyridine] returned a melting point of 93 °C.

`FC(F)(F)c1cc(-c2cccs2)nc2cc(-c3cccs3)nn12`: the melting point was found to be 159 °C.

`Oc1ccc(O)cc1` [hydroquinone]: the melting point was 172 °C.

Turning to `Nc1ccc(-c2ccc(N)cc2)cc1` [Biphenyl-4,4'-diamine], the melting point turned out to be 128 °C.

Turning to `O=C(O)c1ccc([N+](=O)[O-])cc1C(=O)O` [4-nitrophthalic acid], the melting point turned out to be 163 °C.

`ClC(Cl)C(Cl)Cl` [1,1,2,2-tetrachloroethane] came in with a melting point of -43 °C.

Compound `CCOc1ccc2ccccc2c1C(=O)O` [2-ethoxy-1-naphthoic acid] registered a melting point of 144 °C.

Compound `Sc1ccc(Cl)cc1` [4-chlorothiophenol] registered a melting point of 50 °C.

For `OC1CCCC1` [cyclopentanol], the melting point is -17.5 °C and -16.2 °C.

Consider `Cc1ccc(OC(=O)c2ccccc2)cc1` [p-tolyl_benzoate], for which the melting point was 70 °C.

As for `c1cc2cccc3c4cccc5cccc(c(c1)c23)c54` [Perylene], the melting point stood at 278 °C.

As for `O=C(O)CSc1nnc(S)s1` [(5-mercapto-1,3,4-thiadiazol-2-ylthio)acetic acid], the melting point came out at 167 °C.

Take `C#CCO` [propargyl_alcohol]: the melting point was -17 °C.
